According to patent US20060111420A1, “Sorbicillactone-a derivatives for the treatment of tumour and viral diseases” (Johannes Gutenberg-Universitat Mainz, priority 2002, published 2006):

Key:
[1] = system: L5178y mouse lymphoma cellular system (ATCC CRL 1722); assay: Antitumoural activity, L5178y cell proliferation (XTT); format: cell-based; settings: for Optical density (595 nm): 72 h, XTT, control 0.38; for cellular proliferation after 72 h: at >0.1 μg/ml
[2] = target: phospholipase A2 [from bee's poison] (Apis mellifera, UniProt P00630); assay: biochemical; settings: read-out: inhibition of phospholipase A2
[3] = system: NMRI-mice
[4] = system: mice-ear oedema; assay: TPA-induced mice-ear oedema; format: in vivo, mice (Swiss); settings: 20 μg topically 10 min after TPA (10 μg); n=5; P<=0.01
[5] = system: human foreskin-fibroblasts; assay: Proliferation of human foreskin-fibroblasts; format: cell-based; settings: 30 μg/ml; cell count microscopically

Sequence of phospholipase A2 [from bee's poison] (P00630 34-167 limits assumed): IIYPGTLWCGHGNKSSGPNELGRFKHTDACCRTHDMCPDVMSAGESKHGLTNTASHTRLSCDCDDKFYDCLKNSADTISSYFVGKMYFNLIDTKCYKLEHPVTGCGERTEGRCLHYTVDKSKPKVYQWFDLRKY

Row | Compound | Optical density (595 nm) ([1]; 0.1 μg/ml) | Optical density (595 nm) ([1]; 0.3 μg/ml) | Optical density (595 nm) ([1]; 1.0 μg/ml) | Optical density (595 nm) ([1]; 3.0 μg/ml) | cellular proliferation after 72 h [1] | inhibition at 2 µg/mL [2] [%] | mortality ([3]; 20 mg/kg per day i.p. for five days) | sub-acute toxicity ([3]; male, NMRI, mouse, in vivo, ip, 5 days) [mg/kg] | inhibition of the formation of the oedema [4] [%] | effect on the proliferation [5]
1 | C/C=C/C=C/C(O)=C1/C(=O)C(C)=C(O)C2(C)OC(=O)C(C)(NC(=O)C3NN=CC3C(=O)OC)C12 (stereo not drawn) [SOA-D1] | 0.29 | 0.22 | 0.05 | 0.03 | drastically reduced | – | – | – | – | –
2 | C/C=C/C=C/C(O)=C1/C(=O)C(C)=C(O)[C@@]2(C)OC(=O)[C@@](C)(NC(=O)/C=C/C(=O)O)[C@@H]12 [Sorbicillacton A, sorbicillacton A] | 0.24 | 0.19 | 0.07 | 0.06 | drastically reduced | ~80 | None of the test animals dies | > 20 | 39.2±5.3 | no effect on the proliferation
